{"source": "paper PMC10482691", "about": "“LTP induction by structural rather than enzymatic functions of CaMKII” (Nature, 2023)", "key": {"[1]": {"target": "purified CaMKIIα binding to GST–GluN2B-c S1303A (Homo sapiens, UniProt Q9UQM7)", "assay": "CaMKII binding to immobilized GST–GluN2B-c S1303A in vitro"}, "purified CaMKIIα [2]": {"target": "T1, purified CaMKIIα (Rattus norvegicus, UniProt P11275)", "assay": "In vitro kinase reaction: CaMKIIα phosphorylation of GST–GluA1 S831", "format": "biochemical", "details": "30 °C, 1 mM ATP, Ki from IC50 with Km ATP 33.3 μM, read-out: apparent inhibitor constant (Ki), pS831", "protocol": "(§1) Data are presented as mean values ± s.e.m. a, Schematic of the AS283 inhibitor mechanism of action: ATP-competitive inhibition blocks enzymatic activity while mimicking the nucleotide binding requirement to allow interaction with GluN2B. b, Representative immunoblot and quantification of in vitro kinase reactions at 30 °C in 1 mM ATP measuring purified CaMKIIα phosphorylation of GST–GluA1 S831 with varying concentrations of AS283 (0.41–10 μM; n = 4 independent concentration curves). For a negative control (Neg.), ATP was omitted. […] ADP:AS283 P = 0.0697; ADP:tatCN21 P < 0.0001. ***P < 0.001. d, Confocal microscopy images of HEK293 cells co-expressing GFP–CaMKII and mCherry-2BC. […] CaMKII synaptic enrichment was measured before and after cLTP (n = 14,9 cells; RM two-way ANOVA with Šídák’s multiple comparisons test). […]\n(§2) CaMKII-mediated phosphorylation of GluA1 S831 or GluN2B S1303 was measured by in vitro kinase reaction with a purified GST–GluA1 C-terminal tail or GST-GluN2B C-terminal tail. […] GST, phospho-S831, CaMKII, phospho-T286 or phospho-S1303 were detected in the samples by immunoblot analysis.\n(§3) The inhibition constant Ki was calculated using the Cheng–Prusoff equation for competitive inhibition: Ki = IC50/(1 + [ATP]/Km)."}, "CaMKIIβ(h)": {"target": "CaMKIIβ(h) (Homo sapiens, UniProt Q13554)", "sequence (Q13554 whole entry)": "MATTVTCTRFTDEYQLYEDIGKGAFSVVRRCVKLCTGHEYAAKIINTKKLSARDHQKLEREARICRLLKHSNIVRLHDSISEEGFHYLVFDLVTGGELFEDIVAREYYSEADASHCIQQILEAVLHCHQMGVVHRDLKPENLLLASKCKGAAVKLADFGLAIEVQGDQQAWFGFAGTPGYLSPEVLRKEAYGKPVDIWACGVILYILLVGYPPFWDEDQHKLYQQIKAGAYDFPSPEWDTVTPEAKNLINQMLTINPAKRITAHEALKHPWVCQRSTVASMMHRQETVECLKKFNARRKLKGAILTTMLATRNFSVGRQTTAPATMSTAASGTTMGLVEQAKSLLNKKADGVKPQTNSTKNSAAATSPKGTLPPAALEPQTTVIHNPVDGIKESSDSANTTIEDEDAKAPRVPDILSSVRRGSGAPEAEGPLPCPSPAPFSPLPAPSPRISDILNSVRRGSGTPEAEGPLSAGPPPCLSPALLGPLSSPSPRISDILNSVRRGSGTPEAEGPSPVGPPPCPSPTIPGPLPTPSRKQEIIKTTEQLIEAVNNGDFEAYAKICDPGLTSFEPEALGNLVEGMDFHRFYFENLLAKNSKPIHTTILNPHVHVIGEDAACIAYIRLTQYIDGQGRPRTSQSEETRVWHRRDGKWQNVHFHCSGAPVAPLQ", "assay": "Kinase selectivity panel (residual activity at 1 μM)", "format": "biochemical", "details": "inhibitor at 1 μM; read-out: residual kinase activity in % of maximal activity"}, "purified CaMKIIα [3]": {"target": "T1, purified CaMKIIα", "assay": "In vitro kinase reaction: CaMKIIα autophosphorylation of T286", "format": "biochemical", "details": "30 °C, 1 mM ATP, Ki from IC50 with Km ATP 33.3 μM, read-out: apparent inhibitor constant (Ki), pT286", "protocol": "as §1, §2, §3"}, "PKG1α(h)": {"target": "PKG1α(h) (Homo sapiens, UniProt Q13976)", "sequence (Q13976 whole entry)": "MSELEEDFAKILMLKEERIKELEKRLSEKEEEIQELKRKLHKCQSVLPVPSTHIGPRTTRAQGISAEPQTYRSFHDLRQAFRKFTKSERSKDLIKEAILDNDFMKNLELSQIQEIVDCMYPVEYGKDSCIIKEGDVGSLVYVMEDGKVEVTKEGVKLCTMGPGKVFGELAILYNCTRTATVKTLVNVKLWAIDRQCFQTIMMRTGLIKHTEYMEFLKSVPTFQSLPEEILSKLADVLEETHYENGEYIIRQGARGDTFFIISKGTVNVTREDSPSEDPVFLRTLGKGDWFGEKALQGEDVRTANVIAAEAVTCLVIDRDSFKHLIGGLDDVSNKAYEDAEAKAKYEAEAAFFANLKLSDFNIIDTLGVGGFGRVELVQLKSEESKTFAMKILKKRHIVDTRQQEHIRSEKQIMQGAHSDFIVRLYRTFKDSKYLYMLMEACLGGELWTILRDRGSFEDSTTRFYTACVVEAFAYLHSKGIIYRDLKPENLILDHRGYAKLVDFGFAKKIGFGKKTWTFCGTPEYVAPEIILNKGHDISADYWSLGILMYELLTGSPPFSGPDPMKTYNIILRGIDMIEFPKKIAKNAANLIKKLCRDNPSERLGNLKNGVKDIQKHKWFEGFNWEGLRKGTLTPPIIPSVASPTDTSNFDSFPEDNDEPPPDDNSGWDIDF", "assay": "Kinase selectivity panel (residual activity at 1 μM)", "format": "biochemical", "details": "inhibitor at 1 μM; read-out: residual kinase activity in % of maximal activity"}, "ROCK-II(h)": {"target": "ROCK-II(h) (Homo sapiens, UniProt O75116)", "sequence (O75116 whole entry)": "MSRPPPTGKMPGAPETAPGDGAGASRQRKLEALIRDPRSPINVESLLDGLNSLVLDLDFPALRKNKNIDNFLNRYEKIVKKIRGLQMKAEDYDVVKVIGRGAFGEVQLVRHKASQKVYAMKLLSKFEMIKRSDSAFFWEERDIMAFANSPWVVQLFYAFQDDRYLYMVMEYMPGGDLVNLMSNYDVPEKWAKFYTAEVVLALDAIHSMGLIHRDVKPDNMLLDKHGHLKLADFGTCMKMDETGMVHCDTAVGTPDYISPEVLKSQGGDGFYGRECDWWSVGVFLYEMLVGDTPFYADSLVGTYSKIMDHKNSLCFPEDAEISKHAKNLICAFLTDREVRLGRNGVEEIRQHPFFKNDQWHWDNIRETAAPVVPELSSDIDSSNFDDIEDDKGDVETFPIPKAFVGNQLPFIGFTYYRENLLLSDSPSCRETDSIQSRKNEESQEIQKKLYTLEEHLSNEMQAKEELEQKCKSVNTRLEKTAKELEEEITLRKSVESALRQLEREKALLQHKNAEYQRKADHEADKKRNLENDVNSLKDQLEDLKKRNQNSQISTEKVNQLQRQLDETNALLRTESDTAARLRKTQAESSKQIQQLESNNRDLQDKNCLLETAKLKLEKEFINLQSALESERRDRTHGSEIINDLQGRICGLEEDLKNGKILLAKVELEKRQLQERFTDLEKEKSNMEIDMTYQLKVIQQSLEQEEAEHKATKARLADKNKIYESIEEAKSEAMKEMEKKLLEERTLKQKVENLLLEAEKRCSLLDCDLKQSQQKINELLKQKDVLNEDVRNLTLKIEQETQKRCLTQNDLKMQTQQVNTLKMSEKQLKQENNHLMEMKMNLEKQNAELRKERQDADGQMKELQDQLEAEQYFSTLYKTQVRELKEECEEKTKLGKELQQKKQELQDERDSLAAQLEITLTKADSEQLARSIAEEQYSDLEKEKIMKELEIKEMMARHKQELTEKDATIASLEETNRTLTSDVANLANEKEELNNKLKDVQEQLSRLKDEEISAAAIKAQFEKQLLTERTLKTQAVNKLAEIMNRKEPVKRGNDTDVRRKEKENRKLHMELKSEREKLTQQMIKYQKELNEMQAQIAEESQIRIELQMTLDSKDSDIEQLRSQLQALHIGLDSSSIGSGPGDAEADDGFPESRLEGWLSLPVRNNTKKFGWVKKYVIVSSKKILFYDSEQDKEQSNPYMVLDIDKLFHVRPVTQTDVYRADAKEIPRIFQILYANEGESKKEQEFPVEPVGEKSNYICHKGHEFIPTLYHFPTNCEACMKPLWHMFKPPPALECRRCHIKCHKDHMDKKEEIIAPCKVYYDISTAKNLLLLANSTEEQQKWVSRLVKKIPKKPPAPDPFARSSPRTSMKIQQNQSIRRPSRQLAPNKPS", "assay": "Kinase selectivity panel (residual activity at 1 μM)", "format": "biochemical", "details": "inhibitor at 1 μM; read-out: residual kinase activity in % of maximal activity"}, "[4]": {"system": "CA3–CA1 LTP in CaMKII T286A mutant slices", "assay": "LTP field recordings in hippocampal slices of T286A mice", "format": "cell-based, mouse", "details": "for fEPSP slope (normalized to baseline): individual slices, sheet 3c", "protocol": "WT and mutant mouse hippocampal slices were prepared using P56–P70 mice. Isoflurane-anesthetized mice were rapidly decapitated, and the brain was dissected in an ice-cold high-sucrose solution containing 220 mM sucrose, 12 mM MgSO4, 10 mM glucose, 0.2 mM CaCl2, 0.5 mM KCl, 0.65 mM NaH2PO4, 13 mM NaHCO3 and 1.8 mM ascorbate. Transverse hippocampal slices (400 μm) were made using a tissue chopper (McIlwain) and transferred into 32 °C ACSF containing 124 mM NaCl, 3.5 mM KCl, 1.3 mM NaH2PO4, 26 mM NaHCO3, 10 mM glucose, 2 mM CaCl2, 1 mM MgSO4 and 1.8 mM ascorbate. All slices were recovered in 95% O2/5% CO2 for at least 1.5 h before experimentation.\nFor electrophysiological slice recording experiments, a glass micropipette (typical resistance of 0.4–0.8 megaohm when filled with ACSF) was used to record fEPSPs from the CA1 dendritic layer in response to stimulation of the Schaffer collaterals using a tungsten bipolar electrode. Slices were continually perfused with 30.5 °C ± 0.5 °C ACSF at a rate of 2.5 ± 0.5 ml min^−1 during recordings. Stimuli were delivered every 20 s, and three responses (1 min) were averaged for analysis. Data were analysed using WinLTP software with slope calculated as the initial rise from 10 to 60% of the response peak. Input–output curves were generated by increasing the stimulus intensity at a constant interval until a maximum response or population spike was noted to determine stimulation that elicits 50% of maximum slope. […] A stable baseline was acquired for a minimum of 20 min at 50% maximum slope before high-frequency stimulation (HFS; 2 × 100 Hz, 10 s interval) was applied. Responses were recorded for 40 or 60 min after HFS. Change in slope was calculated as a ratio of the average slope of the 20 min baseline (before HFS). Bar graphs of the percentage of fEPSP slope were calculated by averaging the last 10 min time points post-HFS and normalized to baseline."}}, "note": "pKi: −log10 of the molar value. Several values for one entry are separate records, joined by “and”; a condition that tells them apart may be missing. Identical values can stand only once."}
{"smiles": "NCCNc1cccc(-c2ccnc3[nH]c4ccccc4c23)c1", "note": "[AS283]", "values": [{"measurement": "bound CaMKIIα (immunoblot, relative)", "setting": "[1]; Ca2+/CaM, 10 μM AS283, no nucleotide, GST–GluN2B-c S1303A", "result": "4.303 and 5.73 and 6.682"}, {"measurement": "enhancing effect on CaMKII binding compared with ATP", "setting": "[1]; GluN2B S1303A mutant", "result": "indistinguishable"}, {"measurement": "pKi", "setting": "purified CaMKIIα [2]", "result": 7.77}, {"measurement": "remaining activity at 1 µM", "setting": "CaMKIIβ(h)", "result": 5, "unit": "%"}, {"measurement": "pKi", "setting": "purified CaMKIIα [3]", "result": 7.15}, {"measurement": "remaining activity at 1 µM", "setting": "PKG1α(h)", "result": 48, "unit": "%"}, {"measurement": "remaining activity at 1 µM", "setting": "ROCK-II(h)", "result": 77, "unit": "%"}, {"measurement": "effect on LTP in slices from T286A mutant mice", "setting": "[4]; AS283 10 μM", "result": "enabled LTP"}, {"measurement": "LTP quantification (fEPSP slope normalized to baseline)", "setting": "[4]; T286A mice, 10 μM AS283 during LTP induction", "result": "173.525% and 142.167% and 174.092% and 153.624%"}, {"measurement": "fEPSP slope (normalized to baseline)", "setting": "[4]; Time (min) 1.33333", "result": "226.574 and 276.052 and 180.946 and 150.731"}, {"measurement": "fEPSP slope (normalized to baseline)", "setting": "[4]; Time (min) 2.33333", "result": "192.365 and 206.349 and 186.037 and 149.446"}, {"measurement": "fEPSP slope (normalized to baseline)", "setting": "[4]; Time (min) 3.33333", "result": "182.945 and 175.983 and 184.471 and 147.196"}, {"measurement": "fEPSP slope (normalized to baseline)", "setting": "[4]; Time (min) 4.33333", "result": "177.987 and 162.181 and 176.442 and 135.626"}, {"measurement": "fEPSP slope (normalized to baseline)", "setting": "[4]; Time (min) 5.33333", "result": "158.156 and 152.519 and 169.979 and 137.876"}, {"measurement": "fEPSP slope (normalized to baseline)", "setting": "[4]; Time (min) 6.33333", "result": "150.223 and 154.589 and 168.609 and 152.017"}, {"measurement": "fEPSP slope (normalized to baseline)", "setting": "[4]; Time (min) 7.33333", "result": "124.442 and 151.829 and 171.154 and 133.698"}, {"measurement": "fEPSP slope (normalized to baseline)", "setting": "[4]; Time (min) 8.33333", "result": "102.628 and 144.237 and 169 and 134.983"}, {"measurement": "fEPSP slope (normalized to baseline)", "setting": "[4]; Time (min) 9.33333", "result": "104.115 and 145.618 and 173.309 and 134.983"}, {"measurement": "fEPSP slope (normalized to baseline)", "setting": "[4]; Time (min) 10.3333", "result": "122.955 and 140.787 and 178.596 and 135.626"}, {"measurement": "fEPSP slope (normalized to baseline)", "setting": "[4]; Time (min) 11.3333", "result": "100.149 and 132.505 and 172.721 and 133.055"}, {"measurement": "fEPSP slope (normalized to baseline)", "setting": "[4]; Time (min) 12.3333", "result": "126.921 and 132.505 and 175.267 and 134.662"}, {"measurement": "fEPSP slope (normalized to baseline)", "setting": "[4]; Time (min) -1", "result": "91.7204 and 91.0973 and 91.6479 and 102.523"}, {"measurement": "fEPSP slope (normalized to baseline)", "setting": "[4]; Time (min) -2", "result": "90.7288 and 96.6184 and 93.802 and 102.844"}, {"measurement": "fEPSP slope (normalized to baseline)", "setting": "[4]; Time (min) -3", "result": "103.619 and 106.97 and 89.298 and 98.6662"}, {"measurement": "fEPSP slope (normalized to baseline)", "setting": "[4]; Time (min) -4", "result": "104.115 and 88.3368 and 91.2562 and 100.916"}, {"measurement": "fEPSP slope (normalized to baseline)", "setting": "[4]; Time (min) -5", "result": "91.7204 and 91.0973 and 97.7186 and 101.237"}, {"measurement": "fEPSP slope (normalized to baseline)", "setting": "[4]; Time (min) -6", "result": "96.1825 and 96.6184 and 96.7395 and 100.273"}, {"measurement": "fEPSP slope (normalized to baseline)", "setting": "[4]; Time (min) -7", "result": "87.2583 and 94.548 and 98.5019 and 100.916"}, {"measurement": "fEPSP slope (normalized to baseline)", "setting": "[4]; Time (min) -8", "result": "96.1825 and 95.9282 and 99.6769 and 97.7021"}, {"measurement": "fEPSP slope (normalized to baseline)", "setting": "[4]; Time (min) -9", "result": "98.6614 and 96.6184 and 102.614 and 101.88"}, {"measurement": "fEPSP slope (normalized to baseline)", "setting": "[4]; Time (min) -10", "result": "90.7288 and 91.0973 and 99.0894 and 97.0593"}, {"measurement": "fEPSP slope (normalized to baseline)", "setting": "[4]; Time (min) -11", "result": "103.124 and 102.139 and 101.439 and 98.9876"}, {"measurement": "fEPSP slope (normalized to baseline)", "setting": "[4]; Time (min) -12", "result": "109.073 and 120.083 and 100.656 and 94.4882"}, {"measurement": "fEPSP slope (normalized to baseline)", "setting": "[4]; Time (min) -13", "result": "105.602 and 105.59 and 103.398 and 96.4165"}]}
